ChEMBL document CHEMBL1201862, “PubChem BioAssay data set” (2004)
Calls of active or inactive are those of the source. Cut-off read from the data, not from the text of the source, for most assays here: actives have a measured EC50 and inactives only a lower limit.

Columns and labels:
[1] = molecular target: Transitional endoplasmic reticulum ATPase (Homo sapiens, UniProt P55072); experiment: p97 ATPase inhibitors, dose response, biochemical (AID 1534)
[2] = molecular target: Transitional endoplasmic reticulum ATPase (Homo sapiens, UniProt P55072, C522A); experiment: C522A mutant p97 ATPase inhibitors, dose response, counter-screen for p97 inhibitor project, biochemical, luminescence (AID 1544)
[3] = molecular target: T1, Tyrosyl-DNA phosphodiesterase 2 (Homo sapiens, UniProt O95551); experiment: human TDP2 enzyme inhibitors, dose response, biochemical, epi absorbance, IC50 (AID 743297)
T1 sequence (O95551 whole entry): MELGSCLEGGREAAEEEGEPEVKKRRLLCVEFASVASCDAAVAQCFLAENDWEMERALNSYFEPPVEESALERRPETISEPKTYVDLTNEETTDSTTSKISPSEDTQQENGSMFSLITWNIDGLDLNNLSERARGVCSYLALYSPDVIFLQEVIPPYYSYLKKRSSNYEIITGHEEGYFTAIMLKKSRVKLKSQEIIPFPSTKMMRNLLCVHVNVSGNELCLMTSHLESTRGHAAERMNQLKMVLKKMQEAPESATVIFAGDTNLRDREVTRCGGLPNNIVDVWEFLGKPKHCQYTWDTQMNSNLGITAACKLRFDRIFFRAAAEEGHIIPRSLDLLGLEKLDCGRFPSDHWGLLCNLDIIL

[4] = molecular target: T2, Zinc finger protein mex-5 (Caenorhabditis elegans, UniProt Q9XUB2); experiment: MEX-5/TCR-2 RNA interaction inhibitors, dose response, biochemical, C. elegans, fluorescence polarization (AID 1960)
T2 sequence (Q9XUB2 whole entry): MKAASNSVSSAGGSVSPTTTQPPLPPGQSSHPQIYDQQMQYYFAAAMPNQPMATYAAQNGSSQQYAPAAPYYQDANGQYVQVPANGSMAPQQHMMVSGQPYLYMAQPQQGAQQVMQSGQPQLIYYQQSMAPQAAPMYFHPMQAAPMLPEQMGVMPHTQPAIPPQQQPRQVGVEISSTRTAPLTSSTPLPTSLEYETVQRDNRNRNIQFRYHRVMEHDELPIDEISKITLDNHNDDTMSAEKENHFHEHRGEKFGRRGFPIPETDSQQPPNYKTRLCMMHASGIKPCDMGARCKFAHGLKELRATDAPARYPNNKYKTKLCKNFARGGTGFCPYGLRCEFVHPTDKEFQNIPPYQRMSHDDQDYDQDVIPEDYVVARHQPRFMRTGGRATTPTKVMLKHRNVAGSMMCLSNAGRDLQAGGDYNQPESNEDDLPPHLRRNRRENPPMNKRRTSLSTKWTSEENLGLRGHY

[5] = molecular target: T3, RNA-binding protein pos-1 (Caenorhabditis elegans, UniProt G5EF15); experiment: inhibitors of POS-1/mex-3 RNA binding, dose response, biochemical, fluorescence polarization (AID 1964);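 note: purified POS-1 fused to maltose binding protein made in E. coli; potency of compounds blocking POS-1 binding to fluorescent RNA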
T3 sequence (G5EF15 whole entry): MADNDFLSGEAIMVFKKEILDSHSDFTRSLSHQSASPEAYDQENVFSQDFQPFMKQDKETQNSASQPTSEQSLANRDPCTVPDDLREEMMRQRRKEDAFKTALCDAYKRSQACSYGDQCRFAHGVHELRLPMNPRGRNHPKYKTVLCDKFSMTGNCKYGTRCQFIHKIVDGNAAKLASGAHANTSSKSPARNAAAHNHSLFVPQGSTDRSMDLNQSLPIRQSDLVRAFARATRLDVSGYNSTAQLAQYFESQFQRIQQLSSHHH

[6] = molecular target: Heat shock protein HSP 90-alpha (Homo sapiens, UniProt P07900); format: functional, organism-based
[7] = test system: Streptococcus sp. 'group A'; experiment: growth inhibition of control SK(-) GAS strain, dose response, counter-screen for streptokinase expression inhibitor project, luminescence, kanamycin, BacTiterGlo, confirmation (AID 1900); format: functional, organism-based
[8] = NIH-3T3 fibroblast cytotoxicity, dose response, cytotoxicity control, cell-based, fluorescence, Alamar Blue, secondary assay (AID 2327); format: functional;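 note: NIH-3T3 mouse fibroblasts cultured with fluconazole at 8 µg/mL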
Streptococcus = experiment: Group A Streptococcus viability loss, dose response, counter-screen for streptokinase expression inhibitor project, luminescence, BacTiterGlo (AID 1915); format: functional, organism-based;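 note: potency for reduction of bacterial viability or growth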
Paired box protein Pax-8 = Paired box protein Pax-8 (Homo sapiens, UniProt Q06710); experiment: inhibitors of PAX8-driven TPO luciferase reporter, dose response, RMG-I cells, cherry-pick (AID 687027); format: functional, cell-based;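 note: luciferase reporter driven by Pax8 target thyroperoxidase promoter measured by SteadyGlo luminescence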
[9] = C. albicans growth with fluconazole, confirmation, fluorescence, retest (AID 2467); format: functional, cell-based

Transitional endoplasmic reticulum ATPase (Homo sapiens, UniProt P55072, C522A), sequence (P55072 2-806 C522A limits assumed): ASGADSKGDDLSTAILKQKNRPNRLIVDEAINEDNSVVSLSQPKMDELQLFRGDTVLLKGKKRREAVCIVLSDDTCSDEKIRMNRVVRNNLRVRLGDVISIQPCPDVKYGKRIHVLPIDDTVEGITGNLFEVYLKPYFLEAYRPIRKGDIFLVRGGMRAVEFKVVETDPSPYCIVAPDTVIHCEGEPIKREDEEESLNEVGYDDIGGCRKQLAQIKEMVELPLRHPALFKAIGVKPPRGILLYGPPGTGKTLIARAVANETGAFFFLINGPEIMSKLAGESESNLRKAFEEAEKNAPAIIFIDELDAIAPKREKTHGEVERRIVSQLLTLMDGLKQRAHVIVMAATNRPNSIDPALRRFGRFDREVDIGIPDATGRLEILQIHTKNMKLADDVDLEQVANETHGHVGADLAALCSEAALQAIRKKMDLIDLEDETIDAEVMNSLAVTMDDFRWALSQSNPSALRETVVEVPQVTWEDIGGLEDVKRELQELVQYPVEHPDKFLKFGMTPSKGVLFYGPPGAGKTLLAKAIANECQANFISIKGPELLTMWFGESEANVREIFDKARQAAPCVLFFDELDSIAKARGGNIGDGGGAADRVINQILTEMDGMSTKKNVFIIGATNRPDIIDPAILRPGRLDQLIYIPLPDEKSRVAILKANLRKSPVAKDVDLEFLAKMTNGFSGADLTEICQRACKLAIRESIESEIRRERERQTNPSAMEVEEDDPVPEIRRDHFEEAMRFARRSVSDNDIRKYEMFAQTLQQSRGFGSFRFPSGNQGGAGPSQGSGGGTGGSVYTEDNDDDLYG
Paired box protein Pax-8, sequence (Q06710 whole entry): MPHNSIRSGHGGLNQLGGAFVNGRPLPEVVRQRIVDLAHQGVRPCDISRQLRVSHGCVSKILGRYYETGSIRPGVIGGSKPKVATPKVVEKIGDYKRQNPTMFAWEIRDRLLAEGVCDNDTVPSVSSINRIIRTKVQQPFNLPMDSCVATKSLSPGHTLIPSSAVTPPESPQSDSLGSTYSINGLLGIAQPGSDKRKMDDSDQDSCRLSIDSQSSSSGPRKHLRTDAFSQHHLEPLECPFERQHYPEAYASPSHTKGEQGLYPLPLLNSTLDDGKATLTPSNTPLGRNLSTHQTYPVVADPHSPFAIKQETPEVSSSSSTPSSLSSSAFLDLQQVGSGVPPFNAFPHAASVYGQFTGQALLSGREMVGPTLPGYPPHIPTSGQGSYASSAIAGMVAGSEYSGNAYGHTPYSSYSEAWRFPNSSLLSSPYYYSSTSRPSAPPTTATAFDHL
Transitional endoplasmic reticulum ATPase (Homo sapiens, UniProt P55072), sequence (P55072 whole entry): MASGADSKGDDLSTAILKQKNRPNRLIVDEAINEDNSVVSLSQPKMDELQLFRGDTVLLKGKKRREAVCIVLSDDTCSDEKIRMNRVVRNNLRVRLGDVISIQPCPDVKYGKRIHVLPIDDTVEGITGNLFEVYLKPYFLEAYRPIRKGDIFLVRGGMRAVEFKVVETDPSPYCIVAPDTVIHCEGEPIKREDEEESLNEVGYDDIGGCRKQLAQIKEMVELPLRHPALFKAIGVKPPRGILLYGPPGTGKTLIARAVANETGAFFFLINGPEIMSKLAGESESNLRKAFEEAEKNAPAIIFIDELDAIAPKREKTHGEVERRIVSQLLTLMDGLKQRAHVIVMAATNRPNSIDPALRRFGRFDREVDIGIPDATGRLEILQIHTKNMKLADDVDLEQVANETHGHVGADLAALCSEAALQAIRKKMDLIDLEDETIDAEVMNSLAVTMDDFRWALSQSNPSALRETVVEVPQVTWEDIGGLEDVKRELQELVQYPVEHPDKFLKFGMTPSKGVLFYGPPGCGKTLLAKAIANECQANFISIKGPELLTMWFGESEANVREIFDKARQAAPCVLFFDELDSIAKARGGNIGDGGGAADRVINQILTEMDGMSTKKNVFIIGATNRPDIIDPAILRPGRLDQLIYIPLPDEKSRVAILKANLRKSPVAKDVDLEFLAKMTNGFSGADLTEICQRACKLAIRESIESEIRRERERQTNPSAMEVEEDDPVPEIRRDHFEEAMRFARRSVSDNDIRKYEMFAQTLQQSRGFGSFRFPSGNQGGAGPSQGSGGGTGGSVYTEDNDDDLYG

Compound | IC50 [1] | IC50 [2] | IC50 [3] | EC50 [4] | EC50 [5] | AC50 [6] | EC50 [7] | EC50 [8] | EC50 (Streptococcus) | AC50 (Paired box protein Pax-8) | EC50 [9]
N#Cc1c(N2CCCCC2)nc(N)c2c(N)nc(SCC(=O)O)cc12 | > 50 µM (not active) | > 50 µM (not active) |  |  |  |  |  |  |  |  | 
CC1(C)Cc2ccccc2C2=NNC(=O)C2=N1 |  |  | 22.9 µM (inactive) |  |  |  |  |  |  |  | 
CCc1ccc(S(=O)(=O)Nc2cc(SCC(=O)O)c(O)c3ccccc23)cc1 |  |  | 85.9 µM (inactive) | 11.5 µM (active) | 35.5 µM (active) |  |  |  |  |  | 
O=[N+]([O-])c1ccc(Sc2cccc[n+]2[O-])c2nonc12 |  |  |  |  |  | 3.91 µM (active) |  |  |  |  | 
CCCC(=O)NC(c1ccc(C(C)C)cc1)c1ccc2cccnc2c1O (configuration not stated) |  |  |  |  |  |  | 2.55 µM (active) | 22.1 µM (inconclusive) | 6.95 µM (active) | 1.21 µM (active) | 0.621 µM (active)
Oc1c(Cl)cc(Cl)c(Cl)c1Cc1c(O)c(Cl)cc(Cl)c1Cl [HEXACHLOROPHENE] | 5.49 µM (active) | > 50 µM (not active) |  | 19.1 µM (inconclusive) | 45.4 µM (inconclusive) | 0.77 µM (active) | 0.244 µM (active) | 16.2 µM (active) | 0.262 µM (active) | 3.3 µM (active) | > 38 µM (not active)
